The structures appear in SMILES notation. Structures can show the parent of a compound that is named as a salt.

The data set in a line: Dissolution kinetics in simulated lung fluid (SLF), USP 2 dissolution apparatus. It is filed as physicochemical. The note with it: SLF pH 7.4, 37° C. Here is the method:
The dissolution kinetics of the C21-loaded silica described in Example 5 were characterized in SLF (pH 7.4; Gamble's solution: made up with the salts NaCl, NaHCO3, KCl, MgCl2, CaCl2, Na2SO4, sodium citrate dihydrate, sodium acetate, NaH2PO4 (all from Sigma-Aldrich)) at 37° C. (Reference: Simulated Biological Fluids with Possible Application in Dissolution Testing, Marques et al,. Dissolution technologies August 2011, p15-28) using a USP 2 dissolution apparatus with stirring speed 75 rpm. Free, unloaded C21-sodium salt was used as control. Concentration of drug at set times after release was measured by a UV/vis spectrometer (Cecil 3021) at 267 nm.
The dose of C21 was calculated as 25 mg of C21 in 500 mL of SLF. […] The loaded C21 is fully released and dissolved from the silica particles in around 10 minutes.

Consider `CCCCOC(=O)NS(=O)(=O)c1sc(CC(C)C)cc1-c1ccc(Cn2ccnc2)cc1` [C21 sodium salt, N-butyloxycarbonyl-3-(4-imidazol-1-ylmethylphenyl)-5-iso-butylthio-phene-2-sulfonamide], for which the “solubility in SLF conditions” value is given as “readily soluble”. For the same compound, the “released in the first 2 minutes” value (75 rpm, 25 mg of C21 in 500 mL) is reported as 96%.

These data come from patent publication US20210401807A1, “NEW COMPOSITION COMPRISING AMORPHOUS NANOPOROUS SILICA PARTICLES” (VICORE PHARMA AB, priority 2018, published 2021).
